Measured values reported in a melting point compilation (Tetko et al.).

Question: For `COc1ccc(C2CCCCC(O)C2)cc1` (configuration not stated), which melting point is on record?
Answer: 49 to 51 °C

Question: For `NC(=O)c1cccc(S(=O)(=O)Cl)c1`, which melting point is on record?
Answer: 78 to 80 °C

Question: Which melting point does the source give for `O=C(O)c1cc(O)cs1` here?
Answer: 206 to 208 °C

Question: For `NC(C(=O)O)c1cccc(C(F)(F)F)c1` (configuration not stated), which melting point is on record?
Answer: 192 to 194 °C

Question: With `Cc1nncn1-c1cccc(N)c1` as the compound, how does the melting point read?
Answer: 109 to 111 °C

Question: Which melting point does the source give for `O=C(O)CCc1cn(Cc2ccc(Cl)cc2)c2ccccc12` here?
Answer: 139 to 141 °C

Question: Which melting point does the source give for `CC(C)(C)OC(=O)Nc1cccc2c1OCO2` here?
Answer: 89 to 91 °C

Question: For `NS(=O)(=O)c1cc2c(cc1Br)CCCC(=O)N2`, which melting point is on record?
Answer: 249 to 251 °C

Question: For `CC(C)(C)OC(=O)NC(C)(C)c1noc(CCl)n1`, which melting point is on record?
Answer: 79 to 81 °C

Question: Which melting point does the source give for `NC(=O)c1ccn(-c2ccccc2N)n1` here?
Answer: 161 to 163 °C

Question: With `CC(C)Oc1ccc(C(O)CN)cc1` (configuration not stated) as the compound, how does the melting point read?
Answer: 62 to 64 °C

Question: Which melting point does the source give for `O=C(CCCl)Nc1ccc2c(c1)OCO2` here?
Answer: 142 to 144 °C

Question: For `ON=Cc1cccc(OCc2ccncc2)c1`, which melting point is on record?
Answer: 177 to 179 °C

Question: For `CCOC(=O)CN(C)c1ccncc1[N+](=O)[O-]`, which melting point is on record?
Answer: 82 to 84 °C

Question: Which melting point does the source give for `COc1ccccc1SCC(=O)NN` here?
Answer: 109 to 111 °C

Question: Which melting point does the source give for `Nc1nnc(Cl)s1` here?
Answer: 179 to 181 °C

Question: For `CC1C(=O)NC1c1ccccc1` (configuration not stated), which melting point is on record?
Answer: 92 to 94 °C

Question: With `O=C(O)C1CCN(c2ccc(Br)cn2)CC1` as the compound, how does the melting point read?
Answer: 213 to 215 °C

Question: Which melting point does the source give for `COC(=O)c1c[nH]c2cccc(F)c12` here?
Answer: 159 to 161 °C

Question: Which melting point does the source give for `COc1ccccc1C(C)(C)C(=O)O` here?
Answer: 121 to 123 °C

Question: For `COc1ccc(S(=O)(=O)Cl)cc1NC(C)=O`, which melting point is on record?
Answer: 145 to 147 °C

Question: Which melting point does the source give for `Cc1nnc(C(Cl)(Cl)Cl)o1` here?
Answer: 47 to 49 °C

Question: For `Cc1nn(-c2ccccc2F)c(C)c1CC(=O)O`, which melting point is on record?
Answer: 174 to 176 °C

Question: Which melting point does the source give for `CCC(=O)N(c1nnc(S)s1)C1CC1` here?
Answer: 195 to 197 °C

Question: For `O=C(C(=O)c1ccc(Cl)cc1)c1ccc(Cl)cc1`, which melting point is on record?
Answer: 198 to 200 °C

Question: For `COc1ccc(C(=O)CO)cc1Cl`, which melting point is on record?
Answer: 136 to 138 °C

Question: For `NNC(=O)c1ccc(F)cc1Cl`, which melting point is on record?
Answer: 161 to 163 °C

Question: With `COC(=O)c1cc([N+](=O)[O-])ccc1S(=O)(=O)Cl` as the compound, how does the melting point read?
Answer: 109 to 111 °C

Question: For `O=C(O)C1SCCc2ccccc21` (configuration not stated), which melting point is on record?
Answer: 130 to 132 °C

Question: With `CCOc1ccccc1-c1nn(C(C)(C)C)cc1C(=O)O` as the compound, how does the melting point read?
Answer: 207 to 209 °C

Question: Which melting point does the source give for `CN(c1ccccc1)S(=O)(=O)c1cccc(C(=O)O)c1` here?
Answer: 148 to 152 °C

Question: With `CCOc1ccc(C(C)=O)cc1[N+](=O)[O-]` as the compound, how does the melting point read?
Answer: 54 to 56 °C

Question: Which melting point does the source give for `COc1ccc(N)cc1OCc1cn2ccccc2n1` here?
Answer: 190 to 192 °C

Question: For `C=CC(=O)NCc1cnc(C)s1`, which melting point is on record?
Answer: 111 to 113 °C

Question: With `FC(F)(F)Cn1c(-c2ccccc2)cnc1S` as the compound, how does the melting point read?
Answer: 179 to 181 °C

Question: For `O=C(O)c1ccc(N2CCCS2(=O)=O)cc1`, which melting point is on record?
Answer: 247 to 249 °C

Question: Which melting point does the source give for `COC(=O)c1cc(O)c(C)c(F)c1` here?
Answer: 129 to 131 °C

Question: Which melting point does the source give for `Cc1nn(Cc2ccccc2)c(C)c1C=NO` here?
Answer: 135 to 137 °C

Question: For `CC(Cl)C(=O)Nc1cccc(CSc2ccccn2)c1` (configuration not stated), which melting point is on record?
Answer: 97 to 99 °C

Question: For `Cc1cc(C(=O)O)c(C)n1C(C)C`, which melting point is on record?
Answer: 178 to 180 °C

Question: With `COC(=O)COc1ccc(N)cc1Cl` as the compound, how does the melting point read?
Answer: 66 to 68 °C

Question: Which melting point does the source give for `O=C(O)CCCN1C(=S)CSC1=S` here?
Answer: 122 to 124 °C

Question: Which melting point does the source give for `c1cnc(N2CCNCC2)cn1` here?
Answer: 48 to 50 °C

Question: Which melting point does the source give for `CCOC(=O)c1cccnc1S(N)(=O)=O` here?
Answer: 92 to 94 °C

Question: Which melting point does the source give for `O=C(O)Cc1c[nH]c2cccc(Br)c12` here?
Answer: 184 to 186 °C

Question: With `CC(O)C(NS(=O)(=O)c1ccc(Cl)cc1)C(=O)O` (configuration not stated) as the compound, how does the melting point read?
Answer: 179 to 181 °C

Question: For `Cc1ccc(S(=O)(=O)N2CCC(C(=O)O)CC2)cc1C`, which melting point is on record?
Answer: 190 to 192 °C

Question: With `Oc1ccc(Nc2nnns2)cc1` as the compound, how does the melting point read?
Answer: 159 to 161 °C

Question: Which melting point does the source give for `Cc1csc(C(O)(CC(=O)O)C(F)(F)F)n1` (configuration not stated) here?
Answer: 109 to 111 °C

Question: For `O=C(O)c1ccc(S(=O)(=O)CCO)cc1`, which melting point is on record?
Answer: 189 to 191 °C

Question: Which melting point does the source give for `O=C(c1ccc2c(c1)CCCN2)N1CCOCC1` here?
Answer: 142 to 144 °C

Question: With `Cn1ccnc1Sc1ccccc1N` as the compound, how does the melting point read?
Answer: 121 to 123 °C

Question: For `Cc1c(NC(=O)C(C)Sc2nnc(N)s2)c(=O)n(-c2ccccc2)n1C` (configuration not stated), which melting point is on record?
Answer: 143 to 147 °C

Question: Which melting point does the source give for `NC(=O)c1c(N)sc2c1CCC2` here?
Answer: 158 to 160 °C

Question: Which melting point does the source give for `CCNC(=O)CN(CC)C(=O)CCl` here?
Answer: 246 to 248 °C

Question: With `COC(=O)c1ccc(C(F)(F)F)cc1SC` as the compound, how does the melting point read?
Answer: 49 to 51 °C

Question: With `Cc1c(C(=O)O)oc2c(Cl)cc(Br)cc12` as the compound, how does the melting point read?
Answer: 272 to 274 °C

Question: For `C/C(=N\O)c1ccc(-c2cccc(Br)c2)s1`, which melting point is on record?
Answer: 168 to 170 °C

Question: With `CC1CCc2c(C(=O)O)csc2C1` (configuration not stated) as the compound, how does the melting point read?
Answer: 178 to 180 °C

Question: Which melting point does the source give for `N#CCc1cn(-c2ccccc2)nc1-c1ccc(Cl)cc1` here?
Answer: 126 to 128 °C

Question: With `Cc1ccccc1-c1cc(N)on1` as the compound, how does the melting point read?
Answer: 99 to 101 °C

Question: Which melting point does the source give for `CC(C)(C)OC(=O)Nc1ccc(N)cn1` here?
Answer: 157 to 159 °C

Question: Which melting point does the source give for `O=S(=O)(Cl)c1ccc(OCC(F)F)cc1` here?
Answer: 42 to 44 °C

Question: With `O=Cc1ccn(-c2ccccc2)n1` as the compound, how does the melting point read?
Answer: 49 to 51 °C

Question: Which melting point does the source give for `O=C1CC2(CCCCC2)C(=O)O1` here?
Answer: 54 to 58 °C

Question: For `O=C(O)CCCCCCN1C(=O)C=CC1=O`, which melting point is on record?
Answer: 79 to 81 °C

Question: With `O=C(O)CNC(=O)C=Cc1cccnc1` as the compound, how does the melting point read?
Answer: 264 to 266 °C

Question: Which melting point does the source give for `COC(=O)c1cc([N+](=O)[O-])cc(C)c1C` here?
Answer: 72 to 74 °C

Question: Which melting point does the source give for `O=C(O)C1CC1c1ccc(Cl)cc1Cl` (configuration not stated) here?
Answer: 157 to 159 °C

Question: With `COc1cc2ccncc2cc1O` as the compound, how does the melting point read?
Answer: 159 to 161 °C

Question: With `O=[N+]([O-])c1ccc(S(=O)(=O)Cl)cc1Br` as the compound, how does the melting point read?
Answer: 59 to 61 °C

Question: Which melting point does the source give for `c1n[nH]cc1C1CCCCN1` (configuration not stated) here?
Answer: 114 to 116 °C

Question: For `CN(C)C(C(=O)O)c1cccnc1` (configuration not stated), which melting point is on record?
Answer: 184 to 186 °C

Question: Which melting point does the source give for `O=C(O)c1cccc(NC(=O)c2ccco2)c1` here?
Answer: 224 to 226 °C

Question: With `O=C1Cc2cc3c(cc2CCN1)OCCO3` as the compound, how does the melting point read?
Answer: 226 to 228 °C

Question: Which melting point does the source give for `COc1ccc(N)cc1OCC(F)(F)F` here?
Answer: 154 to 156 °C

Question: Which melting point does the source give for `Clc1nc2cccnc2nc1Cl` here?
Answer: 143 to 145 °C

Question: Which melting point does the source give for `O=C(Nc1cccc(F)c1)OCC(F)(F)F` here?
Answer: 50 to 52 °C

Question: With `N#Cc1c(N)nc2sc(C(=O)Nc3ccc(Br)cc3)c(N)c2c1-c1ccco1` as the compound, how does the melting point read?
Answer: 257 to 259 °C

Question: Which melting point does the source give for `O=C(O)C1CCCN1C(=O)C1CCCCC1` (configuration not stated) here?
Answer: 135 to 137 °C

Question: For `Cc1ccc(-n2cc(C(=O)O)c(C(C)(C)C)n2)cc1`, which melting point is on record?
Answer: 218 to 220 °C

Question: For `CC(O)c1ccc2c(c1)Nc1ccccc1S2` (configuration not stated), which melting point is on record?
Answer: 149 to 151 °C

Question: Which melting point does the source give for `COc1cccc(Nc2nc3ccccc3s2)c1` here?
Answer: 117 to 119 °C

Question: With `CS(=O)(=O)c1cccc(N)c1` as the compound, how does the melting point read?
Answer: 49 to 51 °C

Question: For `COc1cc(C(=O)O)c(F)cc1N`, which melting point is on record?
Answer: 189 to 191 °C

Question: Which melting point does the source give for `NS(=O)(=O)NCc1cccnc1` here?
Answer: 129 to 131 °C

Question: With `NNS(=O)(=O)CCc1ccccc1` as the compound, how does the melting point read?
Answer: 62 to 64 °C

Question: For `Cc1ccc(C(=O)NC2CC2)cc1N`, which melting point is on record?
Answer: 114 to 116 °C

Question: Which melting point does the source give for `Nc1cccc(N2CCCCC2=O)c1` here?
Answer: 144 to 146 °C

Question: With `Cc1cc2nc(-c3cccc4ncccc34)[nH]c2cc1C` as the compound, how does the melting point read?
Answer: 129 to 131 °C

Question: For `COC(=O)c1cc(SC(=O)N(C)C)c(OC)cc1[N+](=O)[O-]`, which melting point is on record?
Answer: 139 to 141 °C

Question: Which melting point does the source give for `Cc1nc(N)nc(C2CC2)n1` here?
Answer: 114 to 116 °C

Question: Which melting point does the source give for `CS(=O)(=O)Cc1c(N)cccc1F` here?
Answer: 129 to 131 °C

Question: For `Cc1ccc(N)c(-c2nc(C3CC3)no2)c1`, which melting point is on record?
Answer: 87 to 89 °C

Question: For `Cc1sc(N=CN(C)C)c(C#N)c1C`, which melting point is on record?
Answer: 117 to 119 °C

Question: With `Nc1c(I)cccc1C(=O)O` as the compound, how does the melting point read?
Answer: 172 to 174 °C

Question: Which melting point does the source give for `N#CCCOc1ccccc1` here?
Answer: 58 to 61 °C

Question: Which melting point does the source give for `O=C(O)c1c[nH]nc1-c1ccc(Cl)cc1` here?
Answer: 276 to 278 °C

Question: Which melting point does the source give for `Cc1[nH]cnc1CO` here?
Answer: 233 to 235 °C

Question: For `O=C(CCSc1ccccn1)c1ccc(F)cc1`, which melting point is on record?
Answer: 60 to 62 °C

Question: Which melting point does the source give for `COc1ccc(Cc2cnc(NC(=O)CCl)s2)cc1` here?
Answer: 152 to 154 °C

Question: For `CN(C)S(=O)(=O)c1ccc(=O)[nH]c1`, which melting point is on record?
Answer: 212 to 216 °C
